#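 48-hour exposure; five concentrations; linearly interpolated endpoints. GI50 = concentration required for 50% inhibition of growth. TGI is the concentration that stops growth completely.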
# Experiments:
# Test in all cases: DTP human tumour cell line panel, 48 h
# A549 NSCLC = test system: A549 NSCLC
# DU-145 prostate = test system: DU-145 prostate
# HCT-116 colon = test system: HCT-116 colon
# HOP-92 NSCLC = test system: HOP-92 NSCLC
# IGROV1 ovarian = test system: IGROV1 ovarian
# RXF 393 renal = test system: RXF 393 renal
# SF-539 CNS = test system: SF-539 CNS
# SK-MEL-2 melanoma = test system: SK-MEL-2 melanoma
Compound,TGI (A549 NSCLC) [µM],TGI (DU-145 prostate) [µM],TGI (HCT-116 colon) [µM],TGI (HOP-92 NSCLC) [µM],TGI (IGROV1 ovarian) [µM],TGI (RXF 393 renal) [µM],TGI (SF-539 CNS) [µM],TGI (SK-MEL-2 melanoma) [µM],GI50 (A549 NSCLC) [µM],GI50 (DU-145 prostate) [µM],GI50 (IGROV1 ovarian) [µM],GI50 (RXF 393 renal) [µM],GI50 (SF-539 CNS) [µM],GI50 (SK-MEL-2 melanoma) [µM]
CC(C)(C)C#CI1OC(=O)c2ccccc21,31.9,17.8,6.82,5.78,12,30.4,7.13,27,,,,,,
COC(=O)c1ccc2cc(O)ccc2c1,> 100,> 100,> 100,> 100,> 100,> 100,> 100,> 100,,,,,,
Cn1c2ccccc2c2c3c(=O)[nH][nH]c(=O)c3c3c4ccccc4n(C)c3c21,> 100,> 100,> 100,> 100,> 100,> 100,> 100,> 100,,,,,,
CC(C)NC(=O)OCc1c(COC(=O)NC(C)C)n(C)c2c1ccc1cc(Cl)c(Cl)cc12,95.7,,24,24.3,22.2,25,27.1,32.2,,,,,,
COc1ccc2c(c1)CCC(CN1CCN(CCOC(c3ccccc3)c3ccccc3)CC1)C2O (stereo unspecified),36,38.9,24.8,28.5,30.1,29.3,26.4,33,,,,,,
Oc1ccc(C[C@@H]2CN[C@H](Cc3ccc(O)c(Br)c3)CN2)cc1,> 100,> 100,> 100,> 100,> 100,> 100,> 100,> 100,,,,,,
Clc1sc(Cl)c2c1[C@H](Br)C[C@@H]2Cl,> 100,> 100,65.9,,44.6,87.6,37.1,> 100,,,,,,
C[C@@H](CCO)OC1OC(COC(=O)C(C)(C)C)C(OC(=O)C(C)(C)C)C(OC(=O)C(C)(C)C)C1OC(=O)C(C)(C)C (stereo partly specified),> 100,> 100,> 100,> 100,> 100,61,> 100,> 100,,,,,,
CCC(C)C(NC(=O)C(CCCC[N+](=N)N)NC(=O)C(CCCC[N+](=N)N)NC(=O)c1ccc(OC)cc1)C(=O)NC(CCCC[N+](=N)N)C(=O)N1CCCC1C(=O)NC(CCCCN)C(=O)NC(CC(C)C)C(N)=O (stereo unspecified),> 100,> 100,> 100,,,> 100,> 100,,,,,,,
COc1ccc(C(=C2C(=O)OC(=O)C2=C(C)C)c2ccc(OC)cc2)cc1,> 100,> 100,> 100,> 100,> 100,> 100,> 100,> 100,,,,,,
CCOC(=O)C(NC(=O)CC)(Nc1ccccc1F)C(F)(F)F (stereo unspecified),> 100,> 100,> 100,> 100,> 100,> 100,> 100,> 100,,,,,,
COc1ccc(C(=O)/C=C/c2ccc(OCCCCCCCCCCOc3ccc(/C=C/C(=O)c4ccc(OC)c(OC)c4)cc3)cc2)c(OC)c1,> 100,> 100,> 100,,> 100,> 100,> 100,> 100,,,,,,
CC(C)(C)[Si](C)(C)OC1CCOC1(O)c1ccccn1 (stereo unspecified),> 100,> 100,> 100,> 100,> 100,> 100,> 100,> 100,,,,,,
CCOC(=O)c1c(-c2ccc(OC)cc2)c(C#N)c(=S)n(C2OC(CO)C(O)C(O)C2O)c1C (stereo unspecified),> 100,> 100,> 100,> 100,> 100,> 100,> 100,> 100,,,,,,
Cc1ccc(S(=O)(=O)N2CCc3cc(O)c([N+](=O)[O-])cc32)cc1,> 100,> 100,> 100,,> 100,> 100,> 100,> 100,,,,,,
O=C1c2cc3c(cc2-c2c1c1cc(F)c(F)cc1c(=O)n2C[C@H](O)CO)OCO3,1.12,> 100,,,> 100,0.335,0.14,0.625,0.069,0.0407,0.182,0.121,0.0288,0.243
Brc1ccc(/C(N=N/C(=N\Sc2ccccc2)c2ccc(Br)cc2)=N/Sc2ccccc2)cc1,> 100,> 100,> 100,> 100,> 100,> 100,> 100,> 100,,,,,,
CN(C)CCN1C(=O)N(CCN(C)C)c2c3cc(O)ccc3nc3c([N+](=O)[O-])ccc1c23,35.5,27,17.1,37.3,13.6,,,59.1,,,,,,
Cn1c(=O)c2[nH]c(Nc3cccc(Cl)c3)nc2n(C)c1=O,> 10,> 10,,6.56,> 10,8.76,,,,,,,,
O=C(O)C12C3C4(C(=O)O)C1C1(C(=O)O)C2C3(C(=O)O)C41 (stereo unspecified),> 100,> 100,> 100,> 100,> 100,,> 100,> 100,,,,,,
CO[C@H](C)[C@](O)(C(=O)OCC1=CCN2CC[C@@H](O)[C@H]12)C(C)C,> 100,> 100,> 100,> 100,> 100,,> 100,> 100,,,,,,
CC12CCC(=O)[C@@]1(C)CCCC2=O (stereo partly specified),> 100,> 100,> 100,,> 100,> 100,> 100,> 100,,,,,,
CN(C)C(=O)/N=C1\SC(=Nc2ccccc2)C(=Nc2ccccc2)N1c1ccc([N+](=O)[O-])cc1,,> 100,> 100,,> 100,> 100,,> 100,,,,,,
COc1cccc(Nc2nc3c([nH]2)c(=O)n(C)c(=O)n3C)c1,> 10,> 10,,> 10,> 10,> 10,,,,,,,,
CN1C2CCC1C(CO)C(=O)C2 (stereo unspecified),,> 100,,> 100,> 100,> 100,52.9,> 100,,,,,,
